Earlier results on 2 compounds are cited in patent US12303597B2, “Naloxone formulations for sublingual and/or buccal administration” (Pharmaceutical Productions, Inc., priority 2019, dated 2025).

Structures can show the parent of a compound that is named as a salt. Where two headings read alike, the source gives them in different places.

`C=CCN1CC[C@]23c4c5ccc(O)c4O[C@H]2C(=O)CC[C@@]3(O)[C@H]1C5` [naloxone base, 17-allyl-4,5α-epoxy-3,14-dihydroxymorphinan-6-one]: the solubility in water result is “insoluble in water”. In the case of `C=CCN1CC[C@]23c4c5ccc(O)c4O[C@H]2C(=O)CC[C@@]3(O)[C@H]1C5` [Naloxone hydrochloride], the solubility in water entry (hydrochloride) is “soluble in water”.
